Each structure is given as a SMILES string.

This test deals with Prothrombin (Homo sapiens, UniProt P00734). Description: Anti- Thrombin activity using standard chromogenic assay.

In general, Ki refers to the equilibrium dissociation constant of an inhibitor or competing ligand from its target. Higher therefore signals lower affinity. Regarding `Cc1cc(OCC2CCN(C(=N)N)CC2)cc(OS(=O)(=O)c2cccc(C)c2)c1`, the Ki was found to be 36 nM.
As for `N=C(N)N1CCC(COc2cc(CO)cc(OS(=O)(=O)c3ccccc3Cl)c2)CC1`, the figure is 490 nM; as for `Cc1cc(OCC2CCN(C(=N)N)CC2)cc(OS(=O)(=O)c2ccccc2C(F)(F)F)c1`, 14 nM.
Turning to `Cc1cc(OCC2CCN(C(=N)N)CC2)cc(OS(=O)(=O)c2cccc(N)c2)c1`, the Ki amounted to 32 nM.
As for `COc1cc(OCC2CCN(C(=N)N)CC2)cc(OS(=O)(=O)c2ccccc2Cl)c1`, the figure is 44 nM; as for `N=C(N)N1CCC(COc2cccc(OS(=O)(=O)c3ccccc3Cl)c2)CC1`, 190 nM.
The same measure for `Cc1cc(OCC2CCN(C(=N)N)CC2)cc(OS(=O)(=O)c2ccc(N)cc2)c1`: 399 nM; for `Cc1cc(OCC2CC[N+](=C([NH-])N)CC2)cc(OS(=O)(=O)c2cccc([N+](=O)[O-])c2)c1` (stereo not given): 115 nM.
On to `COC(=O)c1ccccc1S(=O)(=O)Oc1cc(C)cc(OCC2CCN(C(=N)N)CC2)c1`, for which the Ki turned out to be 28 nM.
As for `Cc1cc(OCC2CC[N+](=C([NH-])N)CC2)cc(OS(=O)(=O)c2ccc([N+](=O)[O-])cc2)c1` (stereo not given), the figure is 327 nM; as for `COC(=O)c1cc(OCC2CCN(C(=N)N)CC2)cc(OS(=O)(=O)c2ccccc2Cl)c1`, 3700 nM; as for `Cc1cc(OCC2CCN(C(=N)N)CC2)cc(OS(=O)(=O)c2cccc(C(F)(F)F)c2)c1`, 445 nM.
As for `Cc1cc(OCC2CCN(C(=N)N)CC2)cc(OS(=O)(=O)c2cccc(Cl)c2Cl)c1`, the figure is 22 nM; as for `N=C(N)N1CCC(COc2cc(Cl)cc(OS(=O)(=O)c3ccccc3Cl)c2)CC1`, 30 nM.
For the compound `Cc1cc(OCC2CC[N+](=C([NH-])N)CC2)cc(OS(=O)(=O)c2ccccc2[N+](=O)[O-])c1` (stereo not given), the Ki worked out at 16 nM.
The same measure for `CCc1cc(OCC2CCN(C(=N)N)CC2)cc(OS(=O)(=O)c2ccccc2Cl)c1`: 39 nM; for `Cc1cc(OCC2CCN(C(=N)N)CC2)cc(OS(=O)(=O)c2cccc(Cl)c2)c1`: 39 nM; for `Cc1cc(OCC2CCN(C(=N)N)CC2)cc(OS(=O)(=O)c2ccccc2N)c1`: 52 nM.
The same measure for `Cc1cc(OCC2CCN(C(=N)N)CC2)cc(OS(=O)(=O)c2cccc3ccccc23)c1`: 35 nM; for `Cc1cc(OCC2CCN(C(=N)N)CC2)cc(OS(=O)(=O)c2ccccc2)c1`: 32 nM.

Source of the values: ChEMBL document CHEMBL1132862, “Structure-activity and crystallographic analysis of a new class of non-amide-based thrombin inhibitor” (Bioorg Med Chem Lett, 2000).
